Laboratory results from patent US8318731B2, “Pyrrolopyrimidines” (Janssen Pharmaceutica NV, priority 2007, dated 2012).

Key:
PLK4 (h) = target: T1, PLK4 (h) (Homo sapiens, UniProt O00444); assay: PLK-4 human kinase scintillation proximity assay (SPA); type: biochemical; details: 1 μM ATP, 60 minutes at r.t., read-out: PLK4 pIC50 (converted)
T1 sequence (O00444 1-970): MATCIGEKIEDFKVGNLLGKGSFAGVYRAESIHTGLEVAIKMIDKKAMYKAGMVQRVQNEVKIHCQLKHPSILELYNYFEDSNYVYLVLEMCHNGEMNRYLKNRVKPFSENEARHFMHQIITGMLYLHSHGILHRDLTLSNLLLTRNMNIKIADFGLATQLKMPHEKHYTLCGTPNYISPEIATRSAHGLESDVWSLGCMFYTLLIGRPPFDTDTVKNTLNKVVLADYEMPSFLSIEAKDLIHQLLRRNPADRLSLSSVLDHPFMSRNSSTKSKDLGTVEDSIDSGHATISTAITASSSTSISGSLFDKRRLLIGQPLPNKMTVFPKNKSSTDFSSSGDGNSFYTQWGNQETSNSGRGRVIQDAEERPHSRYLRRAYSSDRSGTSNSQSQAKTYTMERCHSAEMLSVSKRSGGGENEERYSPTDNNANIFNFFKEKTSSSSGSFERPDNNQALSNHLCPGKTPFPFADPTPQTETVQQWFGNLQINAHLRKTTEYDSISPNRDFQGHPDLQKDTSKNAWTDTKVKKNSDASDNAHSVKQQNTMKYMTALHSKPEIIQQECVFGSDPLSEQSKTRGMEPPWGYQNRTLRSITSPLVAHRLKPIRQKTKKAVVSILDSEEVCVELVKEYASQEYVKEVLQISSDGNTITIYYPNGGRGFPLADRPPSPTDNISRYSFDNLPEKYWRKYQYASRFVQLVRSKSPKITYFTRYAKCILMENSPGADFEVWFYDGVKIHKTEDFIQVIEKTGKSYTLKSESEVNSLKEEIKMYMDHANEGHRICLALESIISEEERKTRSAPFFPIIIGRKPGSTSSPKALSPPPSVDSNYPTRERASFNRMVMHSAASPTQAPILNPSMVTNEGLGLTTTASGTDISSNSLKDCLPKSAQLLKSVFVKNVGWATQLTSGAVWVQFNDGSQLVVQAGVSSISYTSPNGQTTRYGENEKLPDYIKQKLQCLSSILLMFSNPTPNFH
Procedure: The in vitro inhibition of a panel of kinases was assessed using either the scintillation proximity assay (SPA) as described by Cook, N. D. et al., Advances in Experimental Medicine and Biology (1991), 36; p. 525-528.
In the SPA technology the activity of the kinase of interest is measured using an appropriate biotinylated substrate that is incubated with the aforementioned kinase protein in the presence of (^33P) radiolabeled ATP. (^33P) Phosphorylation of the substrate is subsequently measured through binding of the phosphorylated substrate to streptavidine coated beads that are based on the scintillant poly(vinyl toluene) (PVT-Beads). The scintillation intensity is detected by imaging on Leadseeker.
All kinases are pre-diluted to a 10× working concentration prior to addition into the assay. The composition of the dilution buffer for each kinase is detailed below.
In a final reaction volume of 30 μl, PLK4 (h) (19 μg/ml) is incubated with 50 mM Hepes pH 8.0, 10 mM MgCl2, 50 mM NaCl, 1 mM NaF, 1 mM DTT, 10 μM of peptide Biotin-RPRGQRDSSYYWE-OH, 1 μM ATP and 2 nM [γ-^33P-ATP] (6.0 μCi/ml). After incubation of 60 minutes at r.t., the reaction is stopped by addition of 40 μL of stop solution containing 8.7 mM EDTA, BSA 0.17%, 0.17% Triton X-100, 1.7 mg/ml SPA beads (GE-healthcare). The plate is centrifuged and read for Scintillation imaging on Leadseeker.

HCT-116 = assay: Cellular proliferation assay (Alamar blue), HCT-116; type: cell-based; details: Homo sapiens; HCT-116 cells; 10% FCS; 72 h with compound; Alamar blue 4 h; read-out: pIC50 HCT-116 (converted)
Procedure: (§1) Cellular proliferation of these compounds was tested on a panel of different cell lines in the presence of 10% FCS serum (37° C. and 5% (v/v) CO2). In a first step these cells were seeded and incubated for 24 hours in the absence of compound. In the second step the cells were incubated for 72 hours with the compounds to be tested for 72 hours. The viable cell number was finally assessed in a standard Alamar blue cell viability assay.
(§2) The viable cell number was assessed by incubation for either 4 h (HCT-116, H1299) 6 h (U87-MG) or 24 h (A2780, PC3, MDA-MB-231) with Alamar blue (Resazurin 9 μg/ml, K-Ferrocyanide 90 μM, K-Ferricyanide 90 μM) and the converted fluorescent product was quantified on a fluorescent plate readed (544 nm/590 nm). Effect of the compounds is calculated as of on control cells.

H1299 = assay: Cellular proliferation assay (Alamar blue), H1299; type: cell-based; details: Homo sapiens, NCI-H1299, H1299 cells; 10% FCS; 72 h with compound; Alamar blue 4 h; read-out: pIC50 H1299 (converted)
Procedure: as §1, §2

A2780 = assay: Cellular proliferation assay (Alamar blue), A2780; type: cell-based; details: Homo sapiens, A2780, A2780 cells; 10% FCS; 72 h with compound; Alamar blue 24 h; read-out: pIC50 A2780 (converted)
Procedure: as §1, §2

PC3 = assay: Cellular proliferation assay (Alamar blue), PC3; type: cell-based; details: Homo sapiens, PC-3, PC-3 cells; 10% FCS; 72 h with compound; Alamar blue 24 h; read-out: pIC50 PC-3 (converted)
Procedure: as §1, §2

MDA-MB-231 = assay: Cellular proliferation assay (Alamar blue), MDA-MB-231; type: cell-based; details: Homo sapiens, MDA-MB-231, MDA-MB-231 cells; 10% FCS; 72 h with compound; Alamar blue 24 h; read-out: pIC50 MDA/MB231 (converted)
Procedure: as §1, §2

Row | Structure (SMILES) | IC50 (PLK4 (h)) | IC50 (HCT-116) | IC50 (H1299) | IC50 (A2780) | IC50 (PC3) | IC50 (MDA-MB-231)
1 | CN1CCCN(C)C(=O)COc2cc(ccc2OCC(=O)NC2CCCC2)Nc2ncnc3[nH]cc(c23)C1 [Compound 91] | 0.0251 µM | 1.58 µM | 3.16 µM | 0.794 µM | > 10 µM | > 10 µM
2 | CN1CCCN(C)C(=O)COc2cc(ccc2NC(=O)Nc2cc(Cl)cc(Cl)c2)Nc2ncnc3[nH]cc(c23)C1 [Compound 115] | 0.158 µM | 0.794 µM | 1.58 µM | 1 µM | > 10 µM | > 10 µM
3 | CN1CCCN(C)C(=O)COc2cc(ccc2OCc2ccccc2)Nc2ncnc3[nH]cc(c23)C1 [Compound 11] | 0.0501 µM | – | – | – | – | –
4 | COc1ccc2cc1OCC(=O)N(C)CC1CN(Cc3c[nH]c4ncnc(c34)N2)C1 [Compound 89] | 0.251 µM | > 10 µM | > 10 µM | > 10 µM | > 10 µM | > 10 µM
5 | CN1CCN(C)C(=O)CCCOc2cc(cc(C(F)(F)F)c2)Nc2ncnc3[nH]cc(c23)C1 [Compound 93] | 6.31 µM | > 10 µM | 1.26 µM | > 10 µM | > 10 µM | > 10 µM
6 | COc1cc2cc(c1OC)OCCCC(=O)N(C)CCCN(C)Cc1c[nH]c3ncnc(c13)N2 [Compound 69] | 2 µM | > 10 µM | > 10 µM | > 10 µM | > 10 µM | > 10 µM
7 | COc1ccc2cc1OCC(=O)N[C@H](Cc1ccccc1)CN(C)CCCc1c[nH]c3ncnc(c13)N2 [Compound 39] | > 10 µM | – | – | – | – | –
8 | CCCOc1ccc2cc1OCC(=O)N(C)CCCN(C)Cc1c[nH]c3ncnc(c13)N2 [Compound 101] | 0.0398 µM | 1.58 µM | 0.794 µM | 1.58 µM | 2 µM | 7.94 µM
9 | CN1CCN(C)C(=O)COc2cc(ccc2N2CCOCC2)Nc2ncnc3[nH]cc(c23)C1 [Compound 97] | 0.794 µM | > 10 µM | > 10 µM | > 10 µM | > 10 µM | > 10 µM
10 | COc1ccc2cc1CN(C)[C@@H](Cc1ccccc1)C(=O)N(C)CCCc1c[nH]c3ncnc(c13)N2 [Compound 51] | > 10 µM | – | – | – | – | –
11 | O=C1CCCOc2cc(ccc2N2CCOCC2)Nc2ncnc3[nH]cc(c23)CN2CCN1CC2 [Compound 110] | 7.94 µM | – | – | – | – | –
12 | CN1CCCN(C)C(=O)COc2cc(ccc2OC2CCOC2)Nc2ncnc3[nH]cc(c23)C1 (centres unmarked) [Compound 135] | 0.158 µM | – | – | – | – | –
13 | CN1CCCN(C)C(=O)COc2cc(ccc2OCCOC2CCCC2)Nc2ncnc3[nH]cc(c23)C1 [Compound 99] | 0.0251 µM | 0.0631 µM | 0.0398 µM | – | 6.31 µM | > 10 µM
14 | CC(C)Oc1ccc2cc1OCC(=O)N(C)CCCN(C)Cc1c[nH]c3ncnc(c13)N2 [Compound 100] | 0.0501 µM | 1.58 µM | 0.631 µM | 1.58 µM | 2 µM | 6.31 µM
15 | COc1ccc2cc1CN(C)[C@@H](CC(C)C)C(=O)N(C)CCCc1c[nH]c3ncnc(c13)N2 [Compound 52] | > 10 µM | – | – | – | – | –
16 | CN1CCN(c2ccc3cc2OCCCCC(=O)N2CCN(CC2)Cc2c[nH]c4ncnc(c24)N3)CC1 [Compound 108] | 7.94 µM | > 10 µM | > 10 µM | > 10 µM | > 10 µM | > 10 µM
17 | CN1CCN(c2ccc3cc2OCCCC(=O)N(C)CCCN(C)Cc2c[nH]c4ncnc(c24)N3)CC1 [Compound 102] | 3.98 µM | 6.31 µM | 2.51 µM | 6.31 µM | 5.01 µM | > 10 µM
18 | COc1cc2cc(c1OC)OCC(=O)N(C)CCN(C)Cc1c[nH]c3ncnc(c13)N2 [Compound 96] | 5.01 µM | > 10 µM | > 10 µM | > 10 µM | > 10 µM | > 10 µM
19 | CN1CCCN(C)C(=O)CCCOc2cc(cc(C(F)(F)F)c2)Nc2ncnc3[nH]cc(c23)C1 [Compound 83] | 5.01 µM | > 10 µM | 3.98 µM | > 10 µM | > 10 µM | > 10 µM
20 | CN1CCCN(C)C(=O)CCCOc2cc(ccc2Cl)Nc2ncnc3[nH]cc(c23)C1 [Compound 43] | 0.501 µM | – | – | – | – | –
21 | CN1CCN(c2ccc3cc2OCCCC(=O)N(C)CCN(C)Cc2c[nH]c4ncnc(c24)N3)CC1 [Compound 94] | 5.01 µM | > 10 µM | > 10 µM | > 10 µM | 10 µM | > 10 µM
22 | CN1CCCN(C)C(=O)COc2cc(ccc2OCC(=O)N2CCOCC2)Nc2ncnc3[nH]cc(c23)C1 [Compound 117] | 0.0501 µM | > 10 µM | > 10 µM | 3.98 µM | > 10 µM | > 10 µM
23 | CN1CCN(c2ccc3cc2OCCCC(=O)N2CCN(CC2)Cc2c[nH]c4ncnc(c24)N3)CC1 [Compound 109] | > 10 µM | > 10 µM | > 10 µM | > 10 µM | > 10 µM | > 10 µM
24 | CN1CCCN(C)C(=O)CCCOc2cccc(c2)Nc2ncnc3[nH]cc(c23)C1 [Compound 32] | 0.501 µM | – | – | – | – | –
25 | COc1ccc2cc1OCCCC(=O)NCCCN(C)Cc1c[nH]c3ncnc(c13)N2 [Compound 25] | 0.631 µM | – | – | – | – | –
26 | COc1ccc2cc1CN(C)[C@@H](CO)C(=O)N(C)CCCc1c[nH]c3ncnc(c13)N2 [Compound 9] | > 10 µM | – | – | – | – | –
27 | CN1CCCN(C)C(=O)COc2cc(ccc2OC2CCCC2)Nc2ncnc3[nH]cc(c23)C1 [Compound 90] | 0.0316 µM | – | – | – | – | –
28 | COc1cc2cc(c1OC)OCCCC(=O)N(C)CCN(C)Cc1c[nH]c3ncnc(c13)N2 [Compound 95] | > 10 µM | > 10 µM | > 10 µM | > 10 µM | > 10 µM | > 10 µM
29 | CN1CCN(C)C(=O)CCCCOc2cc(cc(C(F)(F)F)c2)Nc2ncnc3[nH]cc(c23)C1 [Compound 92] | > 10 µM | > 10 µM | 6.31 µM | > 10 µM | > 10 µM | > 10 µM
30 | COc1ccc2cc1CCC(=O)N(C)CCCN(C)Cc1c[nH]c3ncnc(c13)N2 [Compound 55] | 0.794 µM | – | – | – | – | –
